Results published in patent US7579504B2, “ABCA1 elevating compounds” (Gilead Sciences, Inc., priority 2005, dated 2009).

The molecules below were run on ABCA1 mRNA (assay: ABCA1 mRNA induction in THP-1 cells, QuantiGene branched DNA assay). Settings: 10 μM, 18-20 hours.
Assay type: cell-based
Protocol: Modulation of expression of ABCA1 mRNA levels by the compounds of the invention was determined in the following assays.
Induction of ABC1 in THP-1 cells, was measured using QuantiGene® branched DNA assay as per manufacturer's instructions. Cultures of THP-1 were grown to subconfluence in DMEM/10% FBS before replacement with DMEM/BSA and 10 and 3 μM concentrations of the test compounds in DMSO for 18-20 hours. After treatment of cells with compounds, the cells were lysed with lysis buffer at 37° C. for 20 minutes. The cell lysate and ABCA1 specific probe (Genospectra, Inc., Fremont, Calif.) mix were added to the 96 well capture plate and hybridized at 53° C. for 16-18 hours. The signal was amplified using the amplifier and label probes provided with the QuantiGene® assay followed by addition of a luminescent alkaline phosphatase substrate, dioxitane. Luminescence was quantified in Victor V plate reader.
Step 1 • Cells are lysed to release mRNA in the presence of target probes. Target mRNA from lysed cells was then captured by hybridization and transferred to the Capture Plate.
Step 2 • Signal amplification was performed by hybridization of the bDNA Amplifier and Label Probe.
Step 3 • Addition of chemiluminescence substrate yielded a QuantiGene® signal proportional to the amount of mRNA present in the sample.
Table 1 presents the relative fold increase in ABCA1 expression over DMSO for compounds of the invention when tested at a concentration of 10 μM.

Molecule	ABCA1 Induction Fold Increase over DMSO Vehicle [fold]
N-[(4-methylphenyl)methyl](4-{[(naphthylsulfonyl)benzylamino]methyl}cyclohexyl)carboxamide [Compound 38]	5.0
{4-[({[4-(methylethyl)phenyl]sulfonyl}benzylamino)methyl]cyclohexyl}-N-[(4-methylphenyl)methyl]carboxamide [Compound 28]	2.7

Same assay, conditions: Homo sapiens, 18-20 hours, read-out: ABCA1 Induction Fold Increase over DMSO Vehicle

Molecule	fold induction at 10 µM
Cc1ccc(CNC(=O)C2CCC(CN(Cc3ccccc3)S(=O)(=O)c3cc(Cl)cc(Cl)c3)CC2)cc1 (stereo not drawn) [Compound 32, [4-({[(3,5-dichlorophenyl)sulfonyl]benzylamino}methyl)cyclohexyl]-N-[(4-methylphenyl)methyl]carboxamide]	4
Cc1ccc(CNC(=O)C2CCC(CN(Cc3ccccc3)S(=O)(=O)c3ccc(F)cc3C)CC2)cc1 (stereo not drawn) [Compound 33, [4-({[(4-fluoro-2-methylphenyl)sulfonyl]benzylamino}methyl)cyclohexyl]-N-[(4-methylphenyl)methyl]carboxamide]	4.1
Cc1ccc(CNC(=O)C2CCC(CN(Cc3ccccc3)S(=O)(=O)c3c(C)cc(C)cc3C)CC2)cc1 (stereo not drawn) [Compound 34, N-[(4-methylphenyl)methyl][4-({benzyl[(2,4,6-trimethylphenyl)sulfonyl]amino}methyl)cyclohexyl]carboxamide]	2.1
Cc1ccc(CNC(=O)C2CCC(CN(Cc3ccccc3)S(=O)(=O)c3ccccc3C(F)(F)F)CC2)cc1 (stereo not drawn) [Compound 35, N-[(4-methylphenyl)methyl]{4-[(benzyl{[2-(trifluoromethyl)phenyl]sulfonyl}amino)methyl]cyclohexyl}carboxamide]	6.1
Cc1ccc(CNC(=O)C2CCC(CN(Cc3ccccc3)S(=O)(=O)c3cccc(C(F)(F)F)c3)CC2)cc1 (stereo not drawn) [Compound 36, N-[(4-methylphenyl)methyl]{4-[(benzyl{[3-(trifluoromethyl)phenyl]sulfonyl}amino)methyl]cyclohexyl}carboxamide]	2.7
Cc1ccc(CNC(=O)C2CCC(CN(Cc3ccccc3)S(=O)(=O)c3c(F)c(F)c(F)c(F)c3F)CC2)cc1 (stereo not drawn) [Compound 37, N-[(4-methylphenyl)methyl][4-({[(2,3,4,5,6-pentafluorophenyl)sulfonyl]benzylamino}methyl)cyclohexyl]carboxamide]	3
Cc1ccc(CNC(=O)C2CCC(CN(Cc3ccccc3)S(=O)(=O)c3ccc(C)c(F)c3)CC2)cc1 (stereo not drawn) [Compound 39, [4-({[(3-fluoro-4-methylphenyl)sulfonyl]benzylamino}methyl)cyclohexyl]-N-[(4-methylphenyl)methyl]carboxamide]	4
Cc1ccc(CNC(=O)C2CCC(CN(Cc3ccccc3)S(=O)(=O)c3ccc(F)c(Cl)c3)CC2)cc1 (stereo not drawn) [Compound 40, [4-({[(3-chloro-4-fluorophenyl)sulfonyl]benzylamino}methyl)cyclohexyl]-N-[(4-methylphenyl)methyl]carboxamide]	2.6
Cc1ccc(CNC(=O)C2CCC(CN(Cc3ccccc3)S(=O)(=O)c3ccc4ccccc4c3)CC2)cc1 (stereo not drawn) [Compound 41, N-[(4-methylphenyl)methyl](4-{[(2-naphthylsulfonyl)benzylamino]methyl}cyclohexyl)carboxamide]	5.2
Cc1ccc(CNC(=O)C2CCC(CN(Cc3ccccc3)S(=O)(=O)c3ccc(Cl)c(Cl)c3)CC2)cc1 (stereo not drawn) [Compound 42, [4-({[(3,4-dichlorophenyl)sulfonyl]benzylamino}methyl)cyclohexyl]-N-[(4-methylphenyl)methyl]carboxamide]	2.6
Cc1ccc(CNC(=O)C2CCC(CN(Cc3ccccc3)S(=O)(=O)c3ccc(C)cc3)CC2)cc1 (stereo not drawn) [Compound 43, N-[(4-methylphenyl)methyl][4-({[(4-methylphenyl)sulfonyl]benzylamino}methyl)cyclohexyl]carboxamide]	5.4
Cc1ccc(CNC(=O)C2CCC(CN(Cc3ccccc3)S(=O)(=O)c3ccc(Cl)cc3)CC2)cc1 (stereo not drawn) [Compound 44, [4-({[(4-chlorophenyl)sulfonyl]benzylamino}methyl)cyclohexyl]-N-[(4-methylphenyl)methyl]carboxamide]	3.2
COc1ccc(S(=O)(=O)N(Cc2ccccc2)CC2CCC(C(=O)NCc3ccc(C)cc3)CC2)cc1 (stereo not drawn) [Compound 45, [4-({[(4-methoxyphenyl)sulfonyl]benzylamino}methyl)cyclohexyl]-N-[(4-methylphenyl)methyl]carboxamide]	4.3
Cc1ccc(CNC(=O)C2CCC(CN(Cc3ccccc3)S(=O)(=O)c3cccc(Cl)c3F)CC2)cc1 (stereo not drawn) [Compound 46, [4-({[(3-chloro-2-fluorophenyl)sulfonyl]benzylamino}methyl)cyclohexyl]-N-[(4-methylphenyl)methyl]carboxamide]	4.5
Cc1ccc(CNC(=O)C2CCC(CN(Cc3ccccc3)S(=O)(=O)c3c(C)nn(C)c3C)CC2)cc1 (stereo not drawn) [Compound 47, N-[(4-methylphenyl)methyl][4-({benzyl[(1,3,5-trimethylpyrazol-4-yl)sulfonyl]amino}methyl)cyclohexyl]carboxamide]	3.5
Cc1ccc(CNC(=O)C2CCC(CN(Cc3ccccc3)S(=O)(=O)c3ccc(-c4ccccc4)cc3)CC2)cc1 (stereo not drawn) [Compound 48, N-[(4-methylphenyl)methyl][4-({benzyl[(4-phenylphenyl)sulfonyl]amino}methyl)cyclohexyl]carboxamide]	2.9
